Question: For `Cc1ccc2nc(-c3ccc([N+](=O)[O-])cc3)c(CNC(=O)CC(C)C)n2c1`, which melting point is on record?
Answer: 221 to 222 °C

Question: For `COC(c1ccccc1)C(C)O` (stereo not given), which melting point is on record?
Answer: 104 to 106 °C

Question: For `O=C(COc1cccc(-n2nc(-c3ccc(F)cc3)c3cccnc32)c1)NCCO`, which melting point is on record?
Answer: 161 to 163 °C

Question: Which melting point does the source give for `NS(=O)(=O)c1ccc(-c2noc(-c3cnn4c(C(F)(F)F)cc(-c5ccc(Cl)cc5)nc34)n2)s1` here?
Answer: 294 °C

Question: With `CC(CCC(F)(F)C(C)(C)O)C1CCC2C3CCC4=CC(=O)CCC4(C)C3CCC12C` (stereo not given) as the molecule, how does the melting point read?
Answer: 177 to 178 °C

Question: Which melting point does the source give for `CCSC1(Sc2ccccc2)CCC2C3CCC4=CC(=O)C=CC4(C)C3(F)C(OC(C)=O)CC21C` (stereo not given) here?
Answer: 145 to 148 °C

Question: With `CC(C)(C)OC(=O)NCc1ccsc1CC(=O)O` as the molecule, how does the melting point read?
Answer: 62 to 63 °C

Question: With `N#CCC1CCSc2sccc2C1=O` (stereo not given) as the molecule, how does the melting point read?
Answer: 68 to 70 °C

Question: For `CC(=O)c1cccc(C(=O)Nc2c[nH]nc2C(=O)NCCC#N)c1`, which melting point is on record?
Answer: 205 to 208 °C

Question: For `CCCCCCCCCCCCCCCCCNC(=O)Oc1cccc([N+](=O)[O-])c1`, which melting point is on record?
Answer: 66 to 73 °C

Question: For `O[C@H](CCc1cccnc1)COc1ccc(-c2cccc(F)c2)cc1`, which melting point is on record?
Answer: 61 to 62 °C

Question: With `CC(C)c1ccc(Nc2cccc3c2C(=O)N(C2CCC(=O)NC2=O)C3=O)cc1` (stereo not given) as the molecule, how does the melting point read?
Answer: 138 to 140 °C

Question: With `Brc1ccc(OC2CCN(CCc3c[nH]c4ccccc34)CC2)cc1` as the molecule, how does the melting point read?
Answer: 132 to 134 °C

Question: With `Cc1cc(C2(c3cccc(-c4cncnc4)c3)N=C(N)N(C)C2=O)ccc1O[C@H](C)c1ccccc1` (stereo not given in full) as the molecule, how does the melting point read?
Answer: 112 to 114 °C

Question: For `O=C1NCC2(CCN(CC(O)COc3cccc4ccccc34)CC2)O1` (stereo not given), which melting point is on record?
Answer: 137 to 140 °C

Question: Which melting point does the source give for `Ic1cnc(N2CCNCC2)nc1` here?
Answer: 39 to 40 °C

Question: With `O=C1CCC(=O)N(c2ccc(N3CCN(C4(c5ccc(-c6ccccc6)cc5)C(=O)NC(=O)NC4=O)CC3)cc2)C1` as the molecule, how does the melting point read?
Answer: 300 to 301 °C

Question: For `C=CCSc1cc(C(=O)O)cc([N+](=O)[O-])c1-c1ccccc1`, which melting point is on record?
Answer: 152 to 154 °C

Question: With `CCOC(=O)CCc1cccc(CNC(=O)C[C@H]2O[C@H](c3cccc(OC)c3OC)c3cc(Cl)ccc3N(CC(C)(C)CO)C2=O)c1` as the molecule, how does the melting point read?
Answer: 94 to 95 °C

Question: For `NC(=O)COc1ccc(-c2n[nH]c3c2Cc2ccccc2-3)cc1`, which melting point is on record?
Answer: 247 to 248 °C

Question: For `CC(=O)C1=C(O)C(C(=O)C=Cc2ccccc2)C(=O)OC1=O` (stereo not given), which melting point is on record?
Answer: 154 to 155 °C

Question: For `CCCCNc1c(C(=O)OCC)c(C)nc(N)c1[N+](=O)[O-]`, which melting point is on record?
Answer: 98 to 99 °C

Question: Which melting point does the source give for `N=C(Nc1ccc(Cl)cc1)Nc1ncccc1OCc1c(F)cc(F)cc1F` here?
Answer: 161 to 162 °C

Question: With `CSc1c(C#N)nn(-c2c(Br)cc(C(F)(F)F)cc2Br)c1N` as the molecule, how does the melting point read?
Answer: 211 to 214 °C

Question: For `CNCC(O)c1cc(C)oc1C` (stereo not given), which melting point is on record?
Answer: 76 to 77 °C

Question: With `COc1cc(C)nc(NC(=O)NS(=O)(=O)c2ccccc2OCCOS(C)(=O)=O)n1` as the molecule, how does the melting point read?
Answer: 176 to 179 °C

Question: For `O=[N+]([O-])c1cccc(-c2cccc([N+](=O)[O-])c2)c1`, which melting point is on record?
Answer: 200 °C

Question: With `COc1ccc(Cn2c(C(=O)O)c(-c3ccc4c(c3)OCO4)c3cc(OCC(=O)O)ccc32)c(OCC(=O)O)c1` as the molecule, how does the melting point read?
Answer: 203 to 205 °C

Question: Which melting point does the source give for `CCOC(=O)C1CCc2c(oc3ccc(C(N)=O)cc23)C1` (stereo not given) here?
Answer: 206 to 208 °C

Question: Which melting point does the source give for `COc1cc2c(cc1C(=O)O)nnn2C(C)=O` here?
Answer: 208 to 212 °C

Question: Which melting point does the source give for `O=C(O)c1ncn2c1CN=C(c1ccccc1)c1cc(Cl)ccc1-2` here?
Answer: 268 to 270 °C

Question: With `CC1(C)CC(=O)Nc2ccc(-c3cccc(F)c3)cc21` as the molecule, how does the melting point read?
Answer: 190 to 192 °C

Question: With `Cc1nc2cccc3n(CCCNS(=O)(=O)C(F)(F)F)c(=O)c1n23` as the molecule, how does the melting point read?
Answer: 168 to 169 °C

Question: Which melting point does the source give for `CC(=O)CC(=S)SCc1cn(C(c2ccccc2)(c2ccccc2)c2ccccc2)nn1` here?
Answer: 172 to 173 °C

Question: For `CCOC(=O)c1cc2cccc(N(CC)S(=O)(=O)c3cccs3)c2[nH]1`, which melting point is on record?
Answer: 124 to 125 °C

Question: For `CS(=O)(=O)N(Cl)C(=O)c1cc(Oc2ccc(C(F)(F)F)cc2Cl)ccc1[N+](=O)[O-]`, which melting point is on record?
Answer: 160 to 161 °C

Question: For `Cc1nnnn1/C=C\SC(c1ccccc1)(c1ccccc1)c1ccccc1`, which melting point is on record?
Answer: 208 to 210 °C

Question: Which melting point does the source give for `CCC1(CC(=O)O)OCCc2c1[nH]c1ccccc21` (stereo not given) here?
Answer: 135 to 136 °C

Question: For `CC(C)(C)c1cc(C(=O)Nc2cccc(SCc3cccnc3)c2)ccc1O`, which melting point is on record?
Answer: 95 to 100 °C

Question: Which melting point does the source give for `CN1C[C@H](CN2CCN(C(c3ccccc3)c3ccccc3)CC2)C[C@@H]2c3cccc4[nH]cc(c34)C[C@H]21` here?
Answer: 230 to 233 °C

Question: Which melting point does the source give for `Cc1cc(C(=O)O)ccc1N1CCN(C(=O)OC(C)(C)C)CC1` here?
Answer: 175 to 179 °C

Question: Which melting point does the source give for `CC(N=[N+]=[N-])C(=O)c1nc(C(C)(C)C)c(O)c(C(C)(C)C)n1` (stereo not given) here?
Answer: 91 to 92 °C

Question: Which melting point does the source give for `C=C1CC2C(CCC3(C)C(OC(C)=O)CCC23)C2(C)CCC(=O)C=C12` (stereo not given) here?
Answer: 138 to 140 °C

Question: For `CCCCC1c2ccccc2-c2ccccc2N1S(=O)(=O)c1ccc(OC)cc1` (stereo not given), which melting point is on record?
Answer: 127 to 129 °C

Question: With `O=Cc1ccc(OCc2ccc3ccccc3c2)cc1` as the molecule, how does the melting point read?
Answer: 103 to 109 °C

Question: With `CC(=O)OC1CSC(Sc2cc(C(F)(F)F)cc(C(F)(F)F)c2)C(OC(C)=O)C1OC(C)=O` (stereo not given) as the molecule, how does the melting point read?
Answer: 201 °C

Question: For `COC(=O)c1cc(Cl)c2c(c1OC)CCCN2`, which melting point is on record?
Answer: 105 to 108 °C

Question: For `O=C(c1cccs1)c1cnn2c(-c3cccc(NCC4CC=CCC4)c3)ccnc12` (stereo not given), which melting point is on record?
Answer: 78 to 81 °C

Question: For `CN1C(=O)CNN(c2cc(Cl)c(Oc3ccc(S(C)(=O)=O)cc3)c(Cl)c2)C1=O`, which melting point is on record?
Answer: 217 °C

Question: Which melting point does the source give for `CCOc1c(NCc2c(C)cccc2C)c(=O)c1=O` here?
Answer: 281 to 283 °C

Question: For `CC(C)(C)OC(=O)N[C@@H]1Cc2ccccc2C[C@H]1O` (relative stereo), which melting point is on record?
Answer: 149 to 150 °C

Question: For `CC(C)C1(C)NC(c2ncc(CO)cc2C(=O)O)=NC1=O` (stereo not given), which melting point is on record?
Answer: 170 to 172 °C

Question: For `COc1ccc(CN2C(=O)C(O)(c3cc(CN(C)C)ccc3OC)c3cc(Cl)ccc32)c(OC)c1` (stereo not given), which melting point is on record?
Answer: 189 °C

Question: For `CCOC(=O)Cc1coc2c(OC)ccc(C(=O)Cc3ccncc3)c12`, which melting point is on record?
Answer: 111 to 117 °C

Question: Which melting point does the source give for `COC(=O)C=C(C)c1ccc(CC(C)(C)NCC(O)c2ccccc2)cc1` (stereo not given) here?
Answer: 98 to 103 °C

Question: For `CC(C(=O)O)c1cccc2c(-c3ccc(Cl)cc3)nccc12` (stereo not given), which melting point is on record?
Answer: 200 to 202 °C

Question: With `CC(C)c1cccc(C(C)C)c1NS(=O)(=O)CC(=O)N(Cc1ccccc1)C(C)C` as the molecule, how does the melting point read?
Answer: 168 to 170 °C

Question: Which melting point does the source give for `CCCCCCCCCCCC1=NC(=Cc2[nH]c(-c3ccc[nH]3)cc2OCC)C=C1` here?
Answer: 94 to 96 °C

Question: For `Cc1c(-c2ccc(Cl)s2)ccc(N)c1C#N`, which melting point is on record?
Answer: 108 to 110 °C

Question: Which melting point does the source give for `CC(NS(=O)(=O)N1CCOCC1)P(=O)(c1ccccc1)c1ccccc1` (stereo not given) here?
Answer: 215 to 217 °C

Question: For `CCCc1c2c(c(O)c3c(=O)cc(C(=O)O)oc13)CCCC2`, which melting point is on record?
Answer: 260 to 262 °C

Question: For `CC(C)On1c(C(C)(C)C)nc2c(N)nc3ccccc3c21`, which melting point is on record?
Answer: 187 to 189 °C

Question: For `COCCn1c(Oc2ccc(-n3c4ncccc4n4ccnc34)cc2)nc2cccnc21`, which melting point is on record?
Answer: 178 to 182 °C

Question: For `O=C(CN1C(=O)C(NC(=O)n2ccnc2)N=C(c2ccccc2F)c2ccccc21)N1CC2CCC(CC2)C1` (racemic), which melting point is on record?
Answer: 235 to 237 °C

Question: With `CCn1cc(C(=O)NCc2ccc(Cl)cc2)c(=O)c2cc(C#CCCO)sc21` as the molecule, how does the melting point read?
Answer: 158 to 162 °C

Question: Which melting point does the source give for `CCS(=O)(=O)c1ccc(C=O)cc1` here?
Answer: 107 to 109 °C

Question: For `Clc1cccc2c1C1(CO1)c1ccccc1C21CO1` (stereo not given), which melting point is on record?
Answer: 85 to 92 °C

Question: With `Cc1cnc(CCC(C)C#N)c(N)c1` (stereo not given) as the molecule, how does the melting point read?
Answer: 112 to 114 °C

Question: With `O=C(CN1CCC(n2c(=O)[nH]c3ccccc32)CC1)c1ccc(OCc2ccccc2)c(OCc2ccccc2)c1` as the molecule, how does the melting point read?
Answer: 118 to 120 °C

Question: For `NNc1nc(F)c(CC(F)(F)F)cc1Cl`, which melting point is on record?
Answer: 104 to 106 °C

Reference: a melting point compilation (Tetko et al.; mined from patent text by program, amines drawn as free bases though some values may be those of a salt)
